# Laboratory results reported in ChEMBL document CHEMBL4828715, “Discovery, Structure-Activity Relationships, and In Vivo Evaluation of Novel Aryl Amides as Brain Penetrant Adaptor Protein 2-Associated Kinase 1 (AAK1) Inhibitors for the Treatment of Neuropathic Pain” (J Med Chem, 2021).
# The source made the active and inactive calls. The calls are words filed in the database; no cut-off is given here.
# Tests used:
# [1] = molecular target: MAP kinase-interacting serine/threonine-protein kinase 2 (Homo sapiens, UniProt Q9HBH9); assay: Inhibition of wild-type human partial length MKNK2 (G63 to S388 residues) expressed in mammalian expression system by Kinomescan method
# [2] = Permeability of the compound across apical to basolateral membrane in human Caco-2 cells incubated for 2 hrs by LC-MS/MS analysis
# [3] = molecular target: AP2-associated protein kinase 1 (Mus musculus) (UniProt Q3UHJ0); assay: In vivo inhibition of AAK1 in C57BL6 mouse assessed as suppression of mu2 phosphorylation in brain lysate at 30 mg/kg, sc measured after 30 mins by Western blot analysis relative to control; type: functional, organism-based
# [4] = Drug concentration in Sprague-Dawley rat plasma at 10 mg/kg, sc measured after 190 mins; type: ADME, organism-based
# [5] = molecular target: SRSF protein kinase 3 (Homo sapiens) (UniProt Q9UPE1); assay: Inhibition of wild-type human partial length SRPK3 (P41 to P567 residues) expressed in bacterial expression system assessed as residual binding level at 1 uM by Kinomescan method relative to control
# [6] = Permeability of the compound at pH 7.4 incubated for 4 hrs by PAMPA-based UV spectrophotometry; type: ADME; details: PAMPA, pH 7.4, read-out: permeability
# [7] = molecular target: Phosphatidylinositol 4-phosphate 5-kinase type-1 alpha (Homo sapiens) (UniProt Q99755); assay: Inhibition of wild-type human full length PIP5K1A (M1 to H562 residues) expressed in bacterial expression system assessed as residual binding level at 1 uM by Kinomescan method relative to control
# Mus musculus [8] = assay: Antinociceptive activity against formalin-induced nociceptive behavior in C57BL6 mouse assessed as reduction in phase 1 hind paw flinching at 30 mg/kg, sc administered 60 mins prior to formalin challenge by formalin test; type: functional, organism-based
# [9] = Ratio of drug concentration in brain to plasma of Sprague-Dawley rat model of chronic constriction injury-induced neuropathic pain at 60 mg/kg, sc measured after 240 mins; type: ADME, organism-based; details: read-out: BPR
# [10] = Drug concentration in plasma of C57BL6 mouse at 60 mg/kg, sc; type: ADME, organism-based; details: in vivo
# [11] = Drug concentration in brain of Sprague-Dawley rat model of chronic constriction injury-induced neuropathic pain at 1 mg/kg, sc; type: ADME, organism-based; details: in vivo, read-out: Ct
# Rattus norvegicus [12] = assay: Antinociceptive activity in Sprague-Dawley rat model of chronic constriction injury-induced neuropathic pain assessed as reduction in mechanical hyperalgesia 60 mg/kg, sc by Von Frey test relative to control; type: functional; set-up: scale not given: the % may be the effect or the level left
# [13] = Permeability of the compound at pH 5.5 incubated for 4 hrs by PAMPA-based UV spectrophotometry; type: ADME; details: read-out: permeability
# [14] = molecular target: Serine/threonine-protein kinase RIO2 (Homo sapiens) (UniProt Q9BVS4); assay: Inhibition of wild-type human partial length RIOK2 (M1 to D313 residues) expressed in mammalian expression system assessed as residual binding level at 1 uM by Kinomescan method relative to control
# [15] = molecular target: cAMP-dependent protein kinase catalytic subunit PRKX (Homo sapiens) (UniProt P51817); assay: Inhibition of wild-type human partial length PRKX (M1 to F358 residues) expressed in bacterial expression system assessed as residual binding level at 1 uM by Kinomescan method relative to control
# [16] = molecular target: AP2-associated protein kinase 1 (Mus musculus) (UniProt Q3UHJ0); assay: In vivo inhibition of AAK1 in C57BL6 mouse assessed as suppression of mu2 phosphorylation in brain lysate at 60 mg/kg, sc measured after 30 mins by Western blot analysis relative to control; type: functional, organism-based
# [17] = Drug concentration in plasma of C57BL6 mouse at 30 mg/kg, sc; type: ADME, organism-based; details: in vivo
# Mus musculus [18] = assay: Antinociceptive activity against formalin-induced nociceptive behavior in C57BL6 mouse assessed as reduction in phase 2 hind paw licking/biting at 30 mg/kg, sc administered 60 mins prior to formalin challenge by formalin test; type: functional, organism-based
# [19] = molecular target: MAP kinase-interacting serine/threonine-protein kinase 1 (Homo sapiens, UniProt Q9BUB5); assay: Inhibition of wild-type human full length MKNK1 (M1 to L424 residues) expressed in mammalian expression system assessed as residual binding level at 1 uM by Kinomescan method relative to control
# [20] = Permeability of the compound across basolateral to apical membrane in human Caco-2 cells incubated for 2 hrs by LC-MS/MS analysis; type: ADME, cell-based; details: caco-2, 2 h
# [21] = Unbound drug concentration in plasma of Sprague-Dawley rat model of chronic constriction injury-induced neuropathic pain at 10 mg/kg, sc; type: ADME, organism-based; details: in vivo
# [22] = molecular target: Alpha-2A adrenergic receptor (Homo sapiens, UniProt P08913); assay: Inhibition of alpha 2A adrenergic receptor (unknown origin)
# [23] = molecular target: AP2-associated protein kinase 1 (Mus musculus) (UniProt Q3UHJ0); assay: In vivo inhibition of AAK1 in C57BL6 mouse assessed as suppression of mu2 phosphorylation in brain lysate at 60 mg/kg, sc measured after 1 hr by Western blot analysis relative to control; type: functional, organism-based
# Rattus norvegicus [24] = assay: Reversal of chronic constriction injury-induced mechanical allodynia in Sprague-Dawley rat model of neuropathic pain at 60 mg/kg, sc measured up to 180 mins relative to control; type: functional; details: time min <=180
# [25] = molecular target: G protein-coupled receptor kinase 4 (Homo sapiens) (UniProt P32298); assay: Inhibition of wild-type human full length GRK4 (M1 to C578 residues) expressed in bacterial expression system assessed as residual binding level at 1 uM by Kinomescan method relative to control
# [26] = Inhibition of PKA (unknown origin); set-up: species or system Homo sapiens
# [27] = molecular target: Sodium-dependent noradrenaline transporter (Homo sapiens, UniProt P23975); assay: Inhibition of NET (unknown origin)
# [28] = Unbound drug concentration in plasma of Sprague-Dawley rat model of chronic constriction injury-induced neuropathic pain at 3 mg/kg, sc; type: ADME, organism-based; details: in vivo
# [29] = Protein binding in human plasma assessed as unbound fraction at 10 uM measured after 5 hrs by equilibrium dialysis method
# Rattus norvegicus [30] = assay: Antinociceptive activity in Sprague-Dawley rat model of chronic constriction injury-induced neuropathic pain assessed as reduction in thermal hyperalgesia 3 mg/kg, sc by Von Frey test relative to control; type: functional; set-up: scale not given: the % may be the effect or the level left
# [31] = molecular target: AP2-associated protein kinase 1 (Homo sapiens, UniProt Q2M2I8); assay: Inhibition of human AAK1 expressed in HEK293 cells assessed as suppression of AP2 phosphorylation measured after 3 hrs by Western blot analysis; type: cell-based
# [32] = molecular target: Sodium-dependent serotonin transporter (Homo sapiens, UniProt P31645); assay: Inhibition of SERT (unknown origin)
# [33] = Drug concentration in C57BL6 mouse at 10 ml/kg, sc measured after 2 hrs by LC-MS/MS analysis; type: ADME, organism-based; details: plasma
# [34] = molecular target: BMP-2-inducible protein kinase (Homo sapiens, UniProt Q9NSY1); assay: Inhibition of wild-type human partial length BIKE (S34 to N329 residues) expressed in bacterial expression system assessed as residual binding level at 1 uM by Kinomescan method relative to control
# [35] = Protein binding in mouse plasma assessed as unbound fraction at 10 uM measured after 5 hrs by equilibrium dialysis method
# [36] = molecular target: Cyclin-G-associated kinase (Homo sapiens, UniProt O14976); assay: Inhibition of wild-type human partial length GAK (G13 to Y338 residues) expressed in bacterial expression system by Kinomescan method
# AP2-associated protein kinase 1 (Mus musculus), sequence (Q3UHJ0 whole entry, looked up): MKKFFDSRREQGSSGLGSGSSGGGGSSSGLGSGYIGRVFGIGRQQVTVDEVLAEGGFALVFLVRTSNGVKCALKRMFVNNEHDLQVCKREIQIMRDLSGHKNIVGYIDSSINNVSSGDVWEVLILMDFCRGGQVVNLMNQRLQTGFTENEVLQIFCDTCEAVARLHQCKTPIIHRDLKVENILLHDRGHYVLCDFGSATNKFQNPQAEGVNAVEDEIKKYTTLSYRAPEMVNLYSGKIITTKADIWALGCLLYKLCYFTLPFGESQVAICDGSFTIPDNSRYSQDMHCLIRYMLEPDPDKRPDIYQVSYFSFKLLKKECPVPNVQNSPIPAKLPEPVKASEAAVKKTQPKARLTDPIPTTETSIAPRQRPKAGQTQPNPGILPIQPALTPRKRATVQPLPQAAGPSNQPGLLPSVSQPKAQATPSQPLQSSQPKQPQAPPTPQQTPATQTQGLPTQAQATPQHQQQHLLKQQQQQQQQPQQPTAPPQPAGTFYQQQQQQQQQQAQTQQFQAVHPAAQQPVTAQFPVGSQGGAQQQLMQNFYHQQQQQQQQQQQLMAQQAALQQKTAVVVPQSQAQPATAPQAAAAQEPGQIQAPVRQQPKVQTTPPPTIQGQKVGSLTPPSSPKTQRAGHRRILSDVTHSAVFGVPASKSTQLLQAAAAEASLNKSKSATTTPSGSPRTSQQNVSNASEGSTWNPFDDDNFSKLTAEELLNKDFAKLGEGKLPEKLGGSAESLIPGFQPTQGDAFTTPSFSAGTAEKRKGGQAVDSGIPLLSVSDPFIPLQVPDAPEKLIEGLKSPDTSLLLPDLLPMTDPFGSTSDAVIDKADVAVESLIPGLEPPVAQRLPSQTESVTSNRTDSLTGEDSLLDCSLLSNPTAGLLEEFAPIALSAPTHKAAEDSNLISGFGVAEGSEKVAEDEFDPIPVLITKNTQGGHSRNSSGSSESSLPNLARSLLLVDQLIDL
# BMP-2-inducible protein kinase, sequence (Q9NSY1 whole entry, looked up, the tested form may be a part): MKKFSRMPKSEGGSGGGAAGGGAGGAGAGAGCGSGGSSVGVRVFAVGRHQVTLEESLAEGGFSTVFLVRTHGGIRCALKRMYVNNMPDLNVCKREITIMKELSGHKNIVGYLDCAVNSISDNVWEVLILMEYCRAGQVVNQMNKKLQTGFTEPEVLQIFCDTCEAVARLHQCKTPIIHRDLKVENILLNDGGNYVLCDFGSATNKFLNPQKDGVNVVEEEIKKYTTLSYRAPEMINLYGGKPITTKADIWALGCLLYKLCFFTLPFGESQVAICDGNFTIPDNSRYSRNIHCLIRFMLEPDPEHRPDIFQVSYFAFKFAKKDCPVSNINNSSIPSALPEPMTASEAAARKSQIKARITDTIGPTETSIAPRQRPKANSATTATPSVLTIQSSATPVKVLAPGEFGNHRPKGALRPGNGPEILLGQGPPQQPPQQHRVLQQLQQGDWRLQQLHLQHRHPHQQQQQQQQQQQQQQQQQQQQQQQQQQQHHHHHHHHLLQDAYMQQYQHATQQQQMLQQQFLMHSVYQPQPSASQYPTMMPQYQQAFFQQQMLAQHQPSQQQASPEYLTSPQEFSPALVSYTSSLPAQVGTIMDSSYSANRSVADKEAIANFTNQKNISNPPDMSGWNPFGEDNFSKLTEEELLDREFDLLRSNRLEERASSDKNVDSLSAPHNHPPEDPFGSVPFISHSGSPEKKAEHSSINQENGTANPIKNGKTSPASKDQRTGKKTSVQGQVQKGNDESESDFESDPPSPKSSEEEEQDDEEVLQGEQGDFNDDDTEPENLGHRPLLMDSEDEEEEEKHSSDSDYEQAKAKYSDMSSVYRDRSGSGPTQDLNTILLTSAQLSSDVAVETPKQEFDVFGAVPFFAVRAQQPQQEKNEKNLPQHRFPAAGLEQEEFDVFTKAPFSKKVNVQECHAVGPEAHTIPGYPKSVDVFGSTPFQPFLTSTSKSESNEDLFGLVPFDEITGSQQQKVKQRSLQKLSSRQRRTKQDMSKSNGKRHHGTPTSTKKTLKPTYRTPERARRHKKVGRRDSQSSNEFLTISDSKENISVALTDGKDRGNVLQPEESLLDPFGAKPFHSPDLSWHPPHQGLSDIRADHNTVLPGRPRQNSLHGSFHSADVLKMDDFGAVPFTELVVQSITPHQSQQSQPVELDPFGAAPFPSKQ
# MAP kinase-interacting serine/threonine-protein kinase 1, sequence (Q9BUB5 whole entry, looked up, the tested form may be a part): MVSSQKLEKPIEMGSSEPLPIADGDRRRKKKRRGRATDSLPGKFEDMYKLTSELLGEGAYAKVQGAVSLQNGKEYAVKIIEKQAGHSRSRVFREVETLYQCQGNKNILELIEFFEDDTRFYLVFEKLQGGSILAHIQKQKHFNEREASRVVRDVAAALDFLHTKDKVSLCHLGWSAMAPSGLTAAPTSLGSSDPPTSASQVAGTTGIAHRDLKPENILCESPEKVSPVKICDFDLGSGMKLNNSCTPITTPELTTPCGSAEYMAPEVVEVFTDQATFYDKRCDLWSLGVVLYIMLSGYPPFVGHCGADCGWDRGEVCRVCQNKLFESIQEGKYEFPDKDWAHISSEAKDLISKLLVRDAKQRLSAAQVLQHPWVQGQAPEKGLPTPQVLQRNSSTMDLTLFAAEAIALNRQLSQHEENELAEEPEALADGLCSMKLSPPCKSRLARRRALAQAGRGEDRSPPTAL
# G protein-coupled receptor kinase 4 (Homo sapiens), sequence (P32298 whole entry, looked up, the tested form may be a part): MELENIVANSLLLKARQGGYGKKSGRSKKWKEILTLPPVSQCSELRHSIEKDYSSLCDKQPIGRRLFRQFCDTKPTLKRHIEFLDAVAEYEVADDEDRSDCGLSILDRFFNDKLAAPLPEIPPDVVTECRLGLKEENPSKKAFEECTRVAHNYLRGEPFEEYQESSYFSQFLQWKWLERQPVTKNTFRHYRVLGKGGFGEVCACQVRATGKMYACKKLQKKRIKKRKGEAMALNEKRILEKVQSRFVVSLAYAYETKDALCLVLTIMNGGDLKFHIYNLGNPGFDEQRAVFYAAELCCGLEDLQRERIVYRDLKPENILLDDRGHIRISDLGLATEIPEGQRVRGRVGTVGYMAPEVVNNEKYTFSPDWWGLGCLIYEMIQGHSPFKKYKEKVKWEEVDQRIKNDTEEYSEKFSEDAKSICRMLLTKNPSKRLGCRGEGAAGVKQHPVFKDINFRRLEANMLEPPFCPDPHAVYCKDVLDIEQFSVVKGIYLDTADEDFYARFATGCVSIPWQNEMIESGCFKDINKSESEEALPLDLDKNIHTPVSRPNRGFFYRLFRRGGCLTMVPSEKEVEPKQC
# Sodium-dependent serotonin transporter, sequence (P31645 whole entry): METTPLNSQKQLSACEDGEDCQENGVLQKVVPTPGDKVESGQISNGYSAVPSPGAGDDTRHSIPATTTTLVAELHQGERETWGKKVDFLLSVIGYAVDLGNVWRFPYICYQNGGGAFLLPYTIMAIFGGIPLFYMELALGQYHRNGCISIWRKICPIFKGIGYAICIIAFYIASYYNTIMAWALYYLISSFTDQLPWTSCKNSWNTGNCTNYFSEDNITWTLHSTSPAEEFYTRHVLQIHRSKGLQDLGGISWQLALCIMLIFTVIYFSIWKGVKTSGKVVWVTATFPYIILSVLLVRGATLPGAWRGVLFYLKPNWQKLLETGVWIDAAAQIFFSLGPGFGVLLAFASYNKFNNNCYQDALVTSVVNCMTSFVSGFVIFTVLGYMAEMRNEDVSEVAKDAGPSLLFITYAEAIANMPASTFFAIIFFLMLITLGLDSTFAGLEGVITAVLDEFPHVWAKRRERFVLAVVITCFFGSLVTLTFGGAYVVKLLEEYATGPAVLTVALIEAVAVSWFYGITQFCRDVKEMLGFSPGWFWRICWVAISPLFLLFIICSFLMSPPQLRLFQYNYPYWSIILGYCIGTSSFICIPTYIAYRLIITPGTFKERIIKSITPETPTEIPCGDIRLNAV
# Phosphatidylinositol 4-phosphate 5-kinase type-1 alpha (Homo sapiens), sequence (Q99755 whole entry, the tested form may be a part): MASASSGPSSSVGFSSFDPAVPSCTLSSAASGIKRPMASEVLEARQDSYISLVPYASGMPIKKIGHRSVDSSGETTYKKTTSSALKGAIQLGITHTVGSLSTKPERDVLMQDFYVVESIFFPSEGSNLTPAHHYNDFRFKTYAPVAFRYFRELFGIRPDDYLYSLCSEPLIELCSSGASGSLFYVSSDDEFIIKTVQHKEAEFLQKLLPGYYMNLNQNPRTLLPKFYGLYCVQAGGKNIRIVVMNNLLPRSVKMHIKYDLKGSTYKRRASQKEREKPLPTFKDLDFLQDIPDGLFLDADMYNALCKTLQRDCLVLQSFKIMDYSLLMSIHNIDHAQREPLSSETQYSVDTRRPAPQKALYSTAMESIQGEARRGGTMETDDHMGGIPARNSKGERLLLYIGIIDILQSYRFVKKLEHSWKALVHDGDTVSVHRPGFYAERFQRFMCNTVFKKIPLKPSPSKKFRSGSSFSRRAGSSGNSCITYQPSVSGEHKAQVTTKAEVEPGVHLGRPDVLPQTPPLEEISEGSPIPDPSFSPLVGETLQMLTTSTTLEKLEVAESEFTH
# cAMP-dependent protein kinase catalytic subunit PRKX (Homo sapiens), sequence (P51817 whole entry, the tested form may be a part): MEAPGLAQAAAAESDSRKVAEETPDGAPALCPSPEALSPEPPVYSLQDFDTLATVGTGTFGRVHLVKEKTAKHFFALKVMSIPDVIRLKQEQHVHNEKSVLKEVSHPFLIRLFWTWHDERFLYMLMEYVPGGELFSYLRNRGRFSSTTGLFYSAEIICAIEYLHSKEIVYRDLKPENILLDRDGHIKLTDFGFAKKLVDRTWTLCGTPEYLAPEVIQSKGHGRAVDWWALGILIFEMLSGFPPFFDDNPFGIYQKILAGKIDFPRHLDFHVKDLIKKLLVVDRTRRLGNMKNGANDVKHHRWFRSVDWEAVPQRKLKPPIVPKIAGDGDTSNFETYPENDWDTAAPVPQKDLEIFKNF
smiles,measurement,setting,value
CC(C)C[C@@H](N)C(=O)Nc1ccc(-c2cnco2)c(OC(F)F)c1,IC50,[1],428 nM
same,Papp A→B at 2 h,[2],12.9 ×10⁻⁶ cm/s
same,inhibition,[3],62%
same,concentration at 3.167 h,[4],7.4 µM
same,Activity,[5],7.6%
same,Papp at 4 h,[6],96.7 ×10⁻⁶ cm/s
same,Activity,[7],31%
same,Activity,Mus musculus [8],Active
same,Kp at 4 h,[9],0.5
same,concentration,[10],77 µM
same,concentration,[11],0.35 µM
same,Activity,Rattus norvegicus [12],45%
same,Papp at 4 h,[13],91.8 ×10⁻⁶ cm/s
same,Activity,[14],3.8%
same,Activity,[15],19%
same,inhibition,[16],80%
same,concentration,[17],37 µM
same,Activity,Mus musculus [18],Active
same,Activity,[19],8.4%
same,permeability,[20],113 10^-6 cm/s
same,Cp(f),[21],0.22 µM
same,IC50,[22],> 30000 nM
same,inhibition,[23],90%
same,Activity,Rattus norvegicus [24],42%
same,Activity,[25],13%
same,IC50,[26],570 nM
same,IC50,[27],> 30000 nM
same,Cp(f),[28],0.02 µM
same,"fraction unbound at 5 h, 10 µM",[29],0.038
same,Activity,Rattus norvegicus [30],35%
same,IC50,[31],51 nM
same,IC50,[32],> 30000 nM
same,concentration at 2 h,[33],17.7 µM
same,Activity,[34],6.2%
same,"fraction unbound at 5 h, 10 µM",[35],0.041
same,IC50,[36],1060 nM
